Laboratory results taken from the NIST ThermoML archive (doi:10.1016/j.fluid.2014.09.014).

Experiment: xn = mol fraction of the nth substance listed
Settings: 101 kPa, Liquid, mechanical oscillator

CC(C)OC(C)C [diisopropyl ether] + CC(C)O
mass density [kg/m3]
Settings	293.15 K	298.15 K	303.15 K	308.15 K	313.15 K	318.15 K
x1 = 0.0277	784.54	780.15	775.28	770.51	766.2	–
x1 = 0.0507	783.14	778.52	773.7	769.05	764.54	759.23
x1 = 0.051	783.12	–	773.67	769.05	764.52	759.21
x1 = 0.0717	781.73	776.95	772.14	767.56	762.92	757.56
x1 = 0.1528	775.51	770.53	765.48	760.84	756.03	750.75
x1 = 0.1938	772.05	–	761.88	757.06	–	–
x1 = 0.2029	771.28	766.41	761.07	756.2	751.49	746.41
x1 = 0.245	767.66	762.95	757.34	752.2	747.64	742.79
x1 = 0.297	–	758.78	752.77	747.3	742.94	738.39
x1 = 0.3068	762.42	758.01	751.96	746.39	742.11	737.61
x1 = 0.398	755.24	751.23	744.62	738.38	734.56	730.51
x1 = 0.4609	750.87	747.02	740.13	733.51	729.95	726.09
x1 = 0.5434	745.99	742.15	735.09	728.12	724.76	720.95
x1 = 0.6032	743.03	739.05	732	724.92	721.58	717.67
x1 = 0.6371	741.54	737.43	730.43	723.33	719.96	715.94
x1 = 0.701	738.99	–	–	–	–	–
x1 = 0.754	737.02	732.28	725.68	718.81	715.06	710.5
x1 = 0.791	–	730.68	724.25	717.51	713.58	708.82
x1 = 0.8296	734.1	728.95	722.69	716.11	711.97	707.02
x1 = 0.8903	731.31	725.97	719.93	713.61	709.12	703.97
x1 = 0.9113	730.18	724.83	718.84	712.6	707.99	702.81
x1 = 0.9547	727.49	722.2	716.27	710.18	705.35	700.18
x1 = 0.973	726.17	720.98	715.03	708.99	704.08	698.96
x1 = 0.9771	725.86	720.69	714.73	708.7	703.78	698.67
x1 = 1	723.86	718.3	712.68	707.06	701.5	696.98

CC(C)OC(C)C [diisopropyl ether] + CO
mass density [kg/m3]
Settings	293.15 K	298.15 K	303.15 K	308.15 K	313.15 K	318.15 K
x2 = 0	723.86	718.3	712.68	707.06	701.5	696.98
x2 = 0.0423	725.34	720.12	–	708.61	702.92	698.39
x2 = 0.0424	725.34	720.13	714.26	708.63	702.94	698.41
x2 = 0.082	727.36	722.06	716.26	710.51	704.95	699.97
x2 = 0.0822	727.37	722.07	716.27	710.52	704.96	699.98
x2 = 0.1171	729.04	723.73	717.96	712.26	706.79	701.61
x2 = 0.1271	729.5	724.19	718.43	712.74	707.29	702.07
x2 = 0.1827	731.99	726.76	720.98	715.35	709.93	704.6
x2 = 0.2162	733.44	728.28	722.47	716.86	711.42	706.1
x2 = 0.251	734.94	729.84	723.99	718.4	712.93	707.66
x2 = 0.3298	738.41	733.39	727.46	721.88	716.3	711.24
x2 = 0.3577	739.69	–	728.71	723.14	717.52	712.55
x2 = 0.445	–	–	733.04	–	–	–
x2 = 0.4525	744.38	739.19	733.18	727.64	721.96	717.21
x2 = 0.522	748.28	–	736.82	731.34	725.66	720.99
x2 = 0.5543	750.25	744.6	738.65	733.22	727.56	722.88
x2 = 0.609	753.85	747.88	742.01	736.67	731.07	726.33
x2 = 0.6529	756.99	750.75	744.97	739.73	734.2	729.37
x2 = 0.7504	764.78	758.11	752.58	747.61	742.24	737.12
x2 = 0.804	769.56	762.86	757.48	752.69	–	–
x2 = 0.807	769.84	763.14	757.78	–	747.67	742.4
x2 = 0.8727	776.23	769.84	764.66	760.14	754.77	749.37
x2 = 0.9253	781.7	775.96	770.89	766.58	761.06	755.7
x2 = 0.9527	784.68	779.45	774.42	770.23	764.57	759.3
x2 = 0.9773	787.42	782.77	777.76	773.67	767.86	762.7
x2 = 0.989	–	784.41	779.41	775.36	769.46	764.38
x2 = 0.9964	–	–	–	776.46	770.49	–
